Assays:
Experiment in all cases: relative viability (nuclei count vs DMSO), 5 days (fraction); higher = more cells survive
A-427 = tested on: A-427
Outline: (§1)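 Dosing by pin tool came one day after lung cancer cell lines were seeded in 1536-well plates, using either one drug or a fixed anchor-drug dose plus five library-drug doses (not always all listed) in √10 steps. After 5 days, nuclei were counted on 4× images. Relative viability is treated-well nuclei count divided by vehicle-well nuclei count, and values are medians of duplicate plates.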

LU99A = tested on: LU99A
Outline: as §1

NCI-H2009 = tested on: NCI-H2009
Outline: as §1

EMC-BAC-2 = tested on: EMC-BAC-2
Outline: as §1

HARA = tested on: HARA
Outline: as §1

NCI-H1993 = tested on: NCI-H1993
Outline: as §1

NCI-H727 = tested on: NCI-H727
Outline: as §1

LK-2 = tested on: LK-2
Outline: as §1

NCI-H2170 = tested on: NCI-H2170
Outline: as §1

SW 1573 = tested on: SW 1573
Outline: as §1

HOP-62 = tested on: HOP-62
Outline: as §1

NCI-H596 = tested on: NCI-H596
Outline: as §1

## COc1cc(N2CCC(C(N)=O)CC2)ccc1Nc1nc(N)c(Cl)c(Nc2ccccc2S(=O)(=O)C(C)C)n1 [HG-5-88-01] + Nc1ncn([C@H]2C[C@H](O)[C@@H](CO)O2)c(=O)n1 [Decitabine] (partner 2 µM)
A-427; first compound 0.04 µM
  relative viability: 0.549
A-427; first compound 0.1265 µM
  relative viability: 0.598
A-427; first compound 0.4 µM
  relative viability: 0.603
A-427; first compound 1.265 µM
  relative viability: 0.585
A-427; first compound 4 µM
  relative viability: 0.547
LU99A; first compound 0.04 µM
  relative viability: 0.896
LU99A; first compound 0.1265 µM
  relative viability: 0.929
LU99A; first compound 0.4 µM
  relative viability: 0.915
LU99A; first compound 1.265 µM
  relative viability: 0.93
LU99A; first compound 4 µM
  relative viability: 0.839
NCI-H2009; first compound 0.04 µM
  relative viability: 0.355
NCI-H2009; first compound 0.1265 µM
  relative viability: 0.384
NCI-H2009; first compound 0.4 µM
  relative viability: 0.338
NCI-H2009; first compound 1.265 µM
  relative viability: 0.314
NCI-H2009; first compound 4 µM
  relative viability: 0.377
EMC-BAC-2; first compound 0.04 µM
  relative viability: 1
EMC-BAC-2; first compound 0.1265 µM
  relative viability: 1.07
EMC-BAC-2; first compound 0.4 µM
  relative viability: 0.965
EMC-BAC-2; first compound 1.265 µM
  relative viability: 0.874
EMC-BAC-2; first compound 4 µM
  relative viability: 0.802
HARA; first compound 0.04 µM
  relative viability: 0.581
HARA; first compound 0.1265 µM
  relative viability: 0.504
HARA; first compound 0.4 µM
  relative viability: 0.663
HARA; first compound 1.265 µM
  relative viability: 0.451
HARA; first compound 4 µM
  relative viability: 0.494
NCI-H1993; first compound 0.04 µM
  relative viability: 0.583
NCI-H1993; first compound 0.1265 µM
  relative viability: 0.709
NCI-H1993; first compound 0.4 µM
  relative viability: 0.586
NCI-H1993; first compound 4 µM
  relative viability: 0.545
NCI-H727; first compound 0.04 µM
  relative viability: 0.913
NCI-H727; first compound 0.1265 µM
  relative viability: 0.789
NCI-H727; first compound 0.4 µM
  relative viability: 0.837
NCI-H727; first compound 4 µM
  relative viability: 0.672
LK-2; first compound 0.04 µM
  relative viability: 0.254
LK-2; first compound 0.1265 µM
  relative viability: 0.327
LK-2; first compound 0.4 µM
  relative viability: 0.386
LK-2; first compound 4 µM
  relative viability: 0.236
NCI-H2170; first compound 0.04 µM
  relative viability: 0.461
NCI-H2170; first compound 0.1265 µM
  relative viability: 0.479
NCI-H2170; first compound 0.4 µM
  relative viability: 0.509
NCI-H2170; first compound 1.265 µM
  relative viability: 0.439
NCI-H2170; first compound 4 µM
  relative viability: 0.486
SW 1573; first compound 0.04 µM
  relative viability: 0.454
SW 1573; first compound 0.1265 µM
  relative viability: 0.593
SW 1573; first compound 0.4 µM
  relative viability: 0.423
SW 1573; first compound 1.265 µM
  relative viability: 0.428
SW 1573; first compound 4 µM
  relative viability: 0.458
HOP-62; first compound 0.04 µM
  relative viability: 0.209
HOP-62; first compound 0.1265 µM
  relative viability: 0.226
HOP-62; first compound 0.4 µM
  relative viability: 0.232
HOP-62; first compound 1.265 µM
  relative viability: 0.252
HOP-62; first compound 4 µM
  relative viability: 0.28
NCI-H596; first compound 0.04 µM
  relative viability: 1.02
NCI-H596; first compound 0.1265 µM
  relative viability: 0.973
NCI-H596; first compound 0.4 µM
  relative viability: 1.04
NCI-H596; first compound 1.265 µM
  relative viability: 0.981
